The values that follow come from patent US5478929A, “Bioconversion products of 27-hydroxy avermectin” (Merck & Co., Inc., priority 1994, dated 1995).

What all share (assay type): in vivo
Experiment [1] concerns Trichostrongylus colubriformis. Description: Anthelmintic activity against Trichostrongylus colubriformis. The following applies: Table 4.
The next experiment has as its system Haemonchus contortus. Description: Anthelmintic activity against Haemonchus contortus. To be noted: for Activity profile, Haemonchus Contortus: Table 4.
Experiment [2] relates to Trichostrongylus sigmodontis. Description: Anthelmintic activity against Trichostrongylus sigmodontis (large bowel worm). As to Anthelmintic activity, Trichostrongylus sigmodontis: key: A*: highly active; M: moderately active; I: inactive. To be noted: for Activity profile, Trichostrongulus sigmodontis: Table 4; for Anthelmintic activity, Trichostrongylus sigmodontis: Table 2. An excerpt:
The anthelmintic activity of the instant compound may be determined by orally administering via the feed, a sample of the individual compound, a mixture of such compound, a concentrated extract, and the like to a mouse which had been infected 3 days earlier with a gastrointestinal parasite. At 11, 12 and 13 days after the initiation of the medication, the feces of the mouse are examined for eggs, and on the next day the mouse is sacrificed and the number of worms present in the proximal portion of the small intestine are determined. An active compound is observed when there is a significant reduction of egg and worm counts when compared to infected, unmedicated controls.

The next experiment deals with Lucilla larva. Description: Insecticidal activity, Lucilla larva. As to all read-outs here: key: A*: highly active; M: moderately active; I: inactive. To be noted: for Insecticidal activity, Lucilla larva 48 hrs: listed as 27-OH ivermectins Isomer B.

Regarding `CC1=C[C@H]2C(=O)O[C@H]3C[C@@H](C/C=C(\C)[C@@H](O)[C@@H](C)/C=C/C=C4\CO[C@H]([C@@H]1O)[C@@]42O)O[C@@]1(CC[C@H](C)[C@@H]([C@@H](C)C(C)O)O1)C3` (single isomer, unassigned) [27-OH-22,23 dihydro B1a aglycone isomer B, 27-hydroxy ivermectin aglycone], the “Activity profile, Trichostrongulus colubriformis” value in experiment [1] (1.00 mg/kg) is “I”. Besides, the “Activity profile, Haemonchus Contortus” value with Haemonchus contortus (1.00 mg/kg) is listed as “I”. In addition, the “Activity profile, Trichostrongulus sigmodontis” value in experiment [2] (1.00 mg/kg) is reported as “I”.
As to `CO[C@H]1C[C@H](O[C@H]2[C@H](C)O[C@@H](O[C@@H]3/C(C)=C/C[C@@H]4C[C@@H](C[C@]5(C=C[C@H](C)[C@@H]([C@@H](C)C(C)O)O5)O4)OC(=O)[C@@H]4C=C(C)[C@@H](O)[C@H]5OC/C(=C\C=C\[C@@H]3C)[C@]54O)C[C@@H]2OC)O[C@@H](C)[C@@H]1O` (single isomer, unassigned) [27-OHB1a isomer B, 27-OHB1a], the “Activity profile, Trichostrongulus colubriformis” value in experiment [1] (0.0625 mg/kg), in experiment [1] (0.125 mg/kg) and in experiment [1] (0.25 mg/kg) was “A (85-100% effective)” in each case. Further, the “Activity profile, Haemonchus Contortus” value with Haemonchus contortus (0.0625 mg/kg), with Haemonchus contortus (0.125 mg/kg) and in the experiment on Haemonchus contortus (0.25 mg/kg) was “A (85-100% effective)” each time. The “Activity profile, Trichostrongulus sigmodontis” value in experiment [2] (0.25 mg/kg) was “SLA (35-60% effective)”.
For the molecule `CC[C@H](C)[C@H]1O[C@]2(C=C[C@@H]1C)C[C@@H]1C[C@@H](C/C=C(\C)[C@@H](O[C@H]3C[C@H](OC)[C@@H](O[C@H]4C[C@H](OC)[C@@H](O)[C@H](C)O4)[C@H](C)O3)[C@@H](C)/C=C/C=C3\CO[C@@H]4[C@H](O)C(C)=C[C@@H](C(=O)O1)[C@]34O)O2` [B1a, avermectin B1a, reference compound], the “Activity profile, Trichostrongulus colubriformis” value in experiment [1] (0.0625 mg/kg), in experiment [1] (0.125 mg/kg) and in experiment [1] (0.25 mg/kg) was “A (85-100% effective)” in each case. In addition, the “Activity profile, Haemonchus Contortus” value in the experiment with Haemonchus contortus (0.0625 mg/kg), in the experiment with Haemonchus contortus (0.125 mg/kg) and with Haemonchus contortus (0.25 mg/kg) was “A (85-100% effective)” each time. Besides, the “Activity profile, Trichostrongulus sigmodontis” value was “SLA (35-60% effective)” in experiment [2] (0.0625 mg/kg), “A (85-100% effective)” in experiment [2] (0.125 mg/kg) and “A (85-100% effective)” in experiment [2] (0.25 mg/kg).
In the case of “4"-O-glucosyl, 27-OH-22,23 dihydro B 1 a isomer B [4"-O-glucosyl, 27-OH-22,23 dihydro B1a isomer B]”, the figures for the “Activity profile, Trichostrongulus colubriformis” value in experiment [1] (0.0625 mg/kg), in experiment [1] (0.125 mg/kg) and in experiment [1] (0.25 mg/kg) were “SLA (35-60% effective)”, “MA (60-85% effective)” and “A (85-100% effective)”, respectively. The “Activity profile, Haemonchus Contortus” value is “I” in the experiment on Haemonchus contortus (0.0625 mg/kg), “MA (60-85% effective)” with Haemonchus contortus (0.125 mg/kg) and “A (85-100% effective)” in the experiment on Haemonchus contortus (0.25 mg/kg). The “Activity profile, Trichostrongulus sigmodontis” value in experiment [2] (0.0625 mg/kg), in experiment [2] (0.125 mg/kg) and in experiment [2] (0.25 mg/kg) was “A (85-100% effective)” each time.
With `CC[C@H](C)[C@H]1O[C@]2(CC[C@@H]1C)C[C@@H]1C[C@@H](C/C=C(\C)[C@@H](O[C@H]3C[C@H](OC)[C@@H](O[C@H]4C[C@H](OC)[C@@H](O)[C@H](C)O4)[C@H](C)O3)[C@@H](C)/C=C/C=C3\CO[C@@H]4[C@H](O)C(C)=C[C@@H](C(=O)O1)[C@]34O)O2` [22,23 dihydro 8 B1a, 22,23 dihydro B1a, reference compound], the “Activity profile, Trichostrongulus colubriformis” value in experiment [1] (0.0625 mg/kg), in experiment [1] (0.125 mg/kg) and in experiment [1] (0.25 mg/kg) was “A (85-100% effective)” throughout. For the same molecule, the “Activity profile, Haemonchus Contortus” value in the experiment with Haemonchus contortus (0.0625 mg/kg), in the experiment on Haemonchus contortus (0.125 mg/kg) and with Haemonchus contortus (0.25 mg/kg) was “A (85-100% effective)” each time. The “Activity profile, Trichostrongulus sigmodontis” value was “I” in experiment [2] (0.0625 mg/kg), “A (85-100% effective)” in experiment [2] (0.125 mg/kg) and “A (85-100% effective)” in experiment [2] (0.25 mg/kg).
For `CO[C@H]1C[C@H](O[C@H]2[C@H](C)O[C@@H](O[C@@H]3/C(C)=C/C[C@@H]4C[C@@H](C[C@]5(CC[C@H](C)[C@@H]([C@@H](C)C(C)O)O5)O4)OC(=O)[C@@H]4C=C(C)[C@@H](O)[C@H]5OC/C(=C\C=C\[C@@H]3C)[C@]54O)C[C@@H]2OC)O[C@@H](C)[C@@H]1O` (single isomer, unassigned) [27-OH-22,23 dihydro B1a isomer B, 27-OH 22,23 dihydroavermectin B la], the “Activity profile, Trichostrongulus colubriformis” value in experiment [1] (0.0625 mg/kg) is listed as “I”; in experiment [1] (0.125 mg/kg), “A (85-100% effective)”; in experiment [1] (0.25 mg/kg), “A (85-100% effective)”. In addition, in the experiment with Haemonchus contortus (Table 2, 0.0625 mg/kg, listed as 27-OH ivermectins Isomer B), the “Anthelmintic activity, Haemonchus contortus” value is on record as “I”. Further, the “Activity profile, Haemonchus Contortus” value with Haemonchus contortus (0.0625 mg/kg) is given as “MA (60-85% effective)”; with Haemonchus contortus (0.125 mg/kg), “A (85-100% effective)”; in the experiment on Haemonchus contortus (0.25 mg/kg), “A (85-100% effective)”. Besides, the “Anthelmintic activity, Trichostrongylus sigmodontis” value in experiment [2] (0.0625 mg/kg) is “I”; in experiment [2] (0.125 mg/kg, listed as 27-OH ivermectins Isomer B), “I”; in experiment [2] (0.25 mg/kg, listed as 27-OH ivermectins Isomer B), “I”. Further, the “Activity profile, Trichostrongulus sigmodontis” value in experiment [2] (0.0625 mg/kg), in experiment [2] (0.125 mg/kg) and in experiment [2] (0.25 mg/kg) was “I” in each case. For the same molecule, the “Insecticidal activity, Lucilla larva 24 hrs” value in the experiment with Lucilla larva (0.5 ppm) and in the experiment on Lucilla larva (1 ppm) was “I” in each case. The “Insecticidal activity, Lucilla larva 48 hrs” value in the experiment on Lucilla larva (0.5 ppm) and in the experiment on Lucilla larva (1 ppm) was “I” throughout.
Take “4"-O-glucosyl, 27-OH -22,23 dihydro B1a isomer A [4"-O-glucosyl, 27-OH-22,23 dihydro B1a isomer A]”: the “Activity profile, Trichostrongulus colubriformis” value is recorded as “SLA (35-60% effective)” in experiment [1] (0.0625 mg/kg), “A (85-100% effective)” in experiment [1] (0.125 mg/kg) and “A (85-100% effective)” in experiment [1] (0.25 mg/kg). The “Activity profile, Haemonchus Contortus” value with Haemonchus contortus (0.0625 mg/kg) is “MA (60-85% effective)”; in the experiment with Haemonchus contortus (0.125 mg/kg) it was “A (85-100% effective)”; in the experiment on Haemonchus contortus (0.25 mg/kg) it was “A (85-100% effective)”. The “Activity profile, Trichostrongulus sigmodontis” value in experiment [2] (0.0625 mg/kg), in experiment [2] (0.125 mg/kg) and in experiment [2] (0.25 mg/kg) was “A (85-100% effective)” in each case.
Consider `CO[C@H]1C[C@H](O[C@H]2[C@H](C)O[C@@H](O[C@@H]3/C(C)=C/C[C@@H]4C[C@@H](C[C@]5(CC[C@H](C)[C@@H]([C@@H](C)C(C)O)O5)O4)OC(=O)[C@@H]4C=C(C)[C@@H](O)[C@H]5OC/C(=C\C=C\[C@@H]3C)[C@]54O)C[C@@H]2OC)O[C@@H](C)[C@@H]1O` (single isomer, unassigned) [27-OH-22,23 dihydro B1a isomer A, 27-OH 22,23 dihydroavermectin B la], for which the “Activity profile, Trichostrongulus colubriformis” value in experiment [1] (0.0625 mg/kg), in experiment [1] (0.125 mg/kg) and in experiment [1] (0.25 mg/kg) was “A (85-100% effective)” throughout. The “Activity profile, Haemonchus Contortus” value with Haemonchus contortus (0.0625 mg/kg), in the experiment with Haemonchus contortus (0.125 mg/kg) and in the experiment with Haemonchus contortus (0.25 mg/kg) was “A (85-100% effective)” in each case. Also, the “Anthelmintic activity, Trichostrongylus sigmodontis” value in experiment [2] (0.0625 mg/kg) is reported as “I”. Further, the “Activity profile, Trichostrongulus sigmodontis” value in experiment [2] (0.0625 mg/kg) is listed as “I”; in experiment [2] (0.125 mg/kg), “A (85-100% effective)”; in experiment [2] (0.25 mg/kg) it was “A (85-100% effective)”. Further, the “Insecticidal activity, Lucilla larva 24 hrs” value with Lucilla larva (0.5 ppm) and in the experiment on Lucilla larva (1 ppm) was “I” in each case.
“4"-O-glucosyl, 27-OH B1a [4"-O-glucosyl, 27-OH B1a isomer B]”: the “Activity profile, Trichostrongulus colubriformis” value is “I” in experiment [1] (0.0625 mg/kg), “A (85-100% effective)” in experiment [1] (0.125 mg/kg) and “A (85-100% effective)” in experiment [1] (0.25 mg/kg). The “Activity profile, Haemonchus Contortus” value in the experiment with Haemonchus contortus (0.0625 mg/kg) was “I”; with Haemonchus contortus (0.125 mg/kg), “A (85-100% effective)”; with Haemonchus contortus (0.25 mg/kg), “A (85-100% effective)”. For the same molecule, the “Activity profile, Trichostrongulus sigmodontis” value in experiment [2] (0.0625 mg/kg), in experiment [2] (0.125 mg/kg) and in experiment [2] (0.25 mg/kg) was “A (85-100% effective)” throughout.
`CC1=C[C@H]2C(=O)O[C@H]3C[C@@H](C/C=C(\C)[C@@H](O)[C@@H](C)/C=C/C=C4\CO[C@H]([C@@H]1O)[C@@]42O)O[C@@]1(CC[C@H](C)[C@@H]([C@@H](C)C(C)O)O1)C3` (single isomer, unassigned) [27-OH-22,23 dihydro B1a aglycone isomer A, 27-hydroxy ivermectin aglycone]: the “Activity profile, Trichostrongulus colubriformis” value in experiment [1] (1.00 mg/kg) is “I”. Also, the “Activity profile, Haemonchus Contortus” value with Haemonchus contortus (1.00 mg/kg) was “I”. Besides, the “Activity profile, Trichostrongulus sigmodontis” value in experiment [2] (1.00 mg/kg) was “I”.
